# Measured values reported in ChEMBL document CHEMBL4145533, “6,7-Dimorpholinoalkoxy quinazoline derivatives as potent EGFR inhibitors with enhanced antiproliferative activities against tumor cells” (Eur J Med Chem, 2018).
# Columns and labels:
# A-431 = assay: Antiproliferative activity against human A431 cells harboring wild type EGFR after 72 hrs by MTT assay; type: functional, cell-based; conditions: A-431, 72 h
# HCC827 = assay: Antiproliferative activity against human HCC827 cells harboring EGFR E746-A750 del mutant after 72 hrs by MTT assay; type: functional, cell-based; conditions: HCC827, 72 h
# A549 [1] = assay: Antiproliferative activity against human A549 cells harboring wild type EGFR/K-ras mutant after 72 hrs by MTT assay; type: functional, cell-based; conditions: A549, 72 h
# SW480 = assay: Antiproliferative activity against human SW480 cells harboring wild type EGFR after 72 hrs by MTT assay; type: functional, cell-based; conditions: SW480, 72 h
# NCI-H1975 = assay: Antiproliferative activity against human NCI-H1975 cells harboring EGFR L858R/T790M double mutant after 72 hrs by MTT assay; type: functional, cell-based; conditions: NCI-H1975, 72 h
# A549 [2] = assay: Induction of apoptosis in human A549 cells assessed as necrotic cells at 15 uM after 48 hrs by Annexin V-FITC/propidium iodide satining based FACS analysis (reference value: 0.14%); type: functional
# A549 [3] = assay: Induction of apoptosis in human A549 cells assessed as early apoptotic cells at 15 uM after 48 hrs by Annexin V-FITC/propidium iodide satining based FACS analysis (reference value: 2.78%); type: functional
# A549 [4] = assay: Induction of apoptosis in human A549 cells assessed as late apoptotic cells at 15 uM after 48 hrs by Annexin V-FITC/propidium iodide satining based FACS analysis (reference value: 1.21%); type: functional
# A549 [5] = assay: Cell cycle arrest in human A549 cells assessed as accumulation at S phase at 15 uM after 48 hrs by propidium iodide satining based FACS analysis (reference value: 34.45%); type: functional
# A549 [6] = assay: Cell cycle arrest in human A549 cells assessed as accumulation at G0/G1 phase at 15 uM after 48 hrs by propidium iodide satining based FACS analysis (reference value: 48.87%); type: functional
# A549 [7] = assay: Induction of apoptosis in human A549 cells assessed as viable cells at 15 uM after 48 hrs by Annexin V-FITC/propidium iodide satining based FACS analysis (reference value: 95.87%); type: functional; conditions: A549, 48 h, read-out: Activity
# [8] = molecular target: Epidermal growth factor receptor (Homo sapiens, UniProt P00533, T790M); assay: Inhibition of EGFR T790M mutant (unknown origin) preincubated for 10 mins followed by TK substrate-botion addition measured after 1 hr by spectrophotometric method
# [9] = molecular target: Epidermal growth factor receptor (Homo sapiens, UniProt P00533, L858R/T790M); assay: Inhibition of EGFR L858R/T790M double mutant (unknown origin) using ULight-poly GT as substrate preincubated for 30 mins followed by substrate addition measured after 1 hr by spectrophotometric method
# [10] = molecular target: Epidermal growth factor receptor (Homo sapiens, UniProt P00533, L858R); assay: Inhibition of EGFR L858R mutant (unknown origin) using ULight-poly GT as substrate preincubated for 120 mins followed by substrate addition measured after 2 hrs by spectrophotometric method
# Epidermal growth factor receptor (Homo sapiens, UniProt P00533, L858R), sequence (P00533 25-1210 L858R limits assumed): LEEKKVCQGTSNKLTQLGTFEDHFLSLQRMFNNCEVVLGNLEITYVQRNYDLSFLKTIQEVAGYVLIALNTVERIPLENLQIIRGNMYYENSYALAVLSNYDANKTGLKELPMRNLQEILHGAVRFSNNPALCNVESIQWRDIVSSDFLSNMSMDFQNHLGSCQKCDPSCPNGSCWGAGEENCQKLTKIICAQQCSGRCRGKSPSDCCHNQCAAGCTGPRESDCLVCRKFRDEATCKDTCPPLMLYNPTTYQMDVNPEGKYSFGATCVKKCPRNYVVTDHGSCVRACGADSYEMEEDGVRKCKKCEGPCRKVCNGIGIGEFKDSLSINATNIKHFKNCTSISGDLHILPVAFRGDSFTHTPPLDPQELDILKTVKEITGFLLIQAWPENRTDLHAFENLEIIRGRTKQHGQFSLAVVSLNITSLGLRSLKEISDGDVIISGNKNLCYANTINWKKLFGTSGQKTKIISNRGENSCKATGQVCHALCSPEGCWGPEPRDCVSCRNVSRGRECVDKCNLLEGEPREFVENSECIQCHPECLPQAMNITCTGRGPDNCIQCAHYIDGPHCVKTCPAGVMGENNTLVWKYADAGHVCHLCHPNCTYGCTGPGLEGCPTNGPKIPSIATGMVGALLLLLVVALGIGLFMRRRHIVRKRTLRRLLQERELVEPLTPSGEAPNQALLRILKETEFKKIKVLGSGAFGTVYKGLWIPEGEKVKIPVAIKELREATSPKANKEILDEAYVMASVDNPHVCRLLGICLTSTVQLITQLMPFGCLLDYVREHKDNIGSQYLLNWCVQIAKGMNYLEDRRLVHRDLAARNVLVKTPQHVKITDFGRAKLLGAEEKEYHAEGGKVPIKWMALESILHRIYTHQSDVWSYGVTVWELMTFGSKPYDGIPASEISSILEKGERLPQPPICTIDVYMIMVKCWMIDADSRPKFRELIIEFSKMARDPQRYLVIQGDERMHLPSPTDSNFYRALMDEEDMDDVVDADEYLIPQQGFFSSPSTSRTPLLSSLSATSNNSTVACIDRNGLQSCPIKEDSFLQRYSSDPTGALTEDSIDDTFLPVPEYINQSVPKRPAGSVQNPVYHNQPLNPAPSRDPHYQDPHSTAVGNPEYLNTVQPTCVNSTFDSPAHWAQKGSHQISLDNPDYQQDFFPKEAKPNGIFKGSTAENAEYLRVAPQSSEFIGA
# Epidermal growth factor receptor (Homo sapiens, UniProt P00533, T790M), sequence (P00533 25-1210 T790M limits assumed): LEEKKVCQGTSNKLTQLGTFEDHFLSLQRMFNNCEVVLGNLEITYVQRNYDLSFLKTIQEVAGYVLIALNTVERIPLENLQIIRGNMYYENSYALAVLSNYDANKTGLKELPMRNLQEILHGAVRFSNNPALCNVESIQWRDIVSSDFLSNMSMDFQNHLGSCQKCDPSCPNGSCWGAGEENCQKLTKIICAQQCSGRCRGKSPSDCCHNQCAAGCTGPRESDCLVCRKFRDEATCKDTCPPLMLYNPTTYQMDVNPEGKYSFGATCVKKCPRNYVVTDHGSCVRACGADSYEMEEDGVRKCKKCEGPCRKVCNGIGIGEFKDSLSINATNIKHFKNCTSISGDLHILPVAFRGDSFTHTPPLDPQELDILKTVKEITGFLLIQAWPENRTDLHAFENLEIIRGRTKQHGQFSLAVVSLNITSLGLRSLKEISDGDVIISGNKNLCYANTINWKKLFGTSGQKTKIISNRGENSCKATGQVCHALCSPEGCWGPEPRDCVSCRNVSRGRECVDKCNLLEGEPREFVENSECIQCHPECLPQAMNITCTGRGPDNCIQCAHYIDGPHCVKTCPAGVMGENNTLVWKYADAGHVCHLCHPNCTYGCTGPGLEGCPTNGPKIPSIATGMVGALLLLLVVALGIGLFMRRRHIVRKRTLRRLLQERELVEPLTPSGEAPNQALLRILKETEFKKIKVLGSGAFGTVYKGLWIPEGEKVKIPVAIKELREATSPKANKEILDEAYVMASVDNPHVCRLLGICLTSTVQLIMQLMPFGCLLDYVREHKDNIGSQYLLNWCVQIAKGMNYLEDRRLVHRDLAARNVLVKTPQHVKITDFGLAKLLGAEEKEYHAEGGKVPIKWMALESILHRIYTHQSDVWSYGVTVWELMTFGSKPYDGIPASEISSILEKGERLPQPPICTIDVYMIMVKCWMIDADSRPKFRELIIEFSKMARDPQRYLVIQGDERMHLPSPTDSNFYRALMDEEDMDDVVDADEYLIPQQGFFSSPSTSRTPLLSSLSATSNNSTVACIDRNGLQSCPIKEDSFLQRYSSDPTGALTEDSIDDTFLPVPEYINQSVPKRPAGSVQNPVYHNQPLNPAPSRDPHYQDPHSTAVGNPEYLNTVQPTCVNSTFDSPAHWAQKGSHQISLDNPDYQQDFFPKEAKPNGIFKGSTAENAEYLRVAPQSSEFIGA
# Epidermal growth factor receptor (Homo sapiens, UniProt P00533, L858R/T790M), sequence (P00533 25-1210 T790M/L858R limits assumed): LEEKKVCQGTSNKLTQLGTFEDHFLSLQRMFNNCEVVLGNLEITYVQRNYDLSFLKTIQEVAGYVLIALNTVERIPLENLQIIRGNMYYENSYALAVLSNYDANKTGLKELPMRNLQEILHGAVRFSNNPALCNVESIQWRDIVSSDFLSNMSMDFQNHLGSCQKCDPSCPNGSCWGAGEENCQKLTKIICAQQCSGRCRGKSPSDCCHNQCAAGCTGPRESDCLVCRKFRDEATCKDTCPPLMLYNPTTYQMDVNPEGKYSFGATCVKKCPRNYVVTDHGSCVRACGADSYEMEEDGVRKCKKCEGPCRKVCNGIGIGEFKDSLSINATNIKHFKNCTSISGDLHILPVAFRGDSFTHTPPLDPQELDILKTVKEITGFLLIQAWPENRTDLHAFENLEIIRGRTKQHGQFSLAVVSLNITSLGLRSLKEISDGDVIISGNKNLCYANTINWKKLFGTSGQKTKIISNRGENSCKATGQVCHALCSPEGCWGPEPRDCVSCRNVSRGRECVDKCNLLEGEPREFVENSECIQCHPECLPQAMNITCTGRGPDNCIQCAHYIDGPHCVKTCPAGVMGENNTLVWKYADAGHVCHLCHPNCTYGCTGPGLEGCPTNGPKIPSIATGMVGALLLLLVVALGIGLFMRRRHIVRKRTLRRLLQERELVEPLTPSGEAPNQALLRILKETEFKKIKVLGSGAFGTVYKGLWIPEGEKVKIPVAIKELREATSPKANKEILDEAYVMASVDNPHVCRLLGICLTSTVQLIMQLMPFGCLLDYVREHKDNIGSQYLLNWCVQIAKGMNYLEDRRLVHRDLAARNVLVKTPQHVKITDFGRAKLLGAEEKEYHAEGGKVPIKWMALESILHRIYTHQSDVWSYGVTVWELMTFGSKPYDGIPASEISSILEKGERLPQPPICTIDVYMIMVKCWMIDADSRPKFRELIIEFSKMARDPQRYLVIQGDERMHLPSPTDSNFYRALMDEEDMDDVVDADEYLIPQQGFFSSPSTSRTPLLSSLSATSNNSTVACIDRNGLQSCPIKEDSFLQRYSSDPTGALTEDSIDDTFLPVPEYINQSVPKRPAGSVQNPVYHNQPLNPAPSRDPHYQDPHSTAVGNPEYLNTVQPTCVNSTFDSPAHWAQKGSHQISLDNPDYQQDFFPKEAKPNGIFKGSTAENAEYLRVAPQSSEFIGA
SMILES,IC50 (A-431) [µM],IC50 (HCC827) [µM],IC50 (A549 [1]) [µM],IC50 (SW480) [µM],IC50 (NCI-H1975) [µM],Activity (A549 [2]) [%],Activity (A549 [3]) [%],Activity (A549 [4]) [%],Activity (A549 [5]) [%],Activity (A549 [6]) [%],viability at 15 µM (A549 [7]) [%],IC50 [8] [µM],IC50 [9] [µM],IC50 [10] [µM]
C#Cc1cccc(Nc2ncnc3cc(OCCCN4CCOCC4)c(OCCCN4CCOCC4)cc23)c1,1.56,0.0066,3.97,5.39,3.1,,,,,,,,,
C/C=C/c1ccc(Nc2ncnc3cc(OCCN4CCOCC4)c(OCCN4CCOCC4)cc23)cc1,10.1,1.86,14.1,29.2,89.3,,,,,,,,,
Fc1ccc(Nc2ncnc3cc(OCCCN4CCOCC4)c(OCCCN4CCOCC4)cc23)cc1Cl,2.01,0.0078,3.03,3.54,4.45,,,,,,,,,
C#Cc1cccc(Nc2ncnc3cc(OCCN4CCOCC4)c(OCCN4CCOCC4)cc23)c1,5.41,0.05,11.5,20.8,23.1,,,,,,,,,
Fc1cccc(COc2ccc(Nc3ncnc4cc(OCCN5CCOCC5)c(OCCN5CCOCC5)cc34)cc2Cl)c1,3.62,0.32,5.81,8.82,12.2,,,,,,,,,
CS(=O)(=O)CCNCc1ccc(-c2ccc3ncnc(Nc4ccc(OCc5cccc(F)c5)c(Cl)c4)c3c2)o1 [LAPATINIB],4.8,0.6,14.9,12.6,12.7,1.5,4.56,6.27,23.89,67.5,87.7,,,
C/C=C/c1ccc(Nc2ncnc3cc(OCCCN4CCOCC4)c(OCCCN4CCOCC4)cc23)cc1,1.35,0.29,8.83,6.08,5.53,,,,,,,> 1,> 2,0.235
Fc1ccc(Nc2ncnc3cc(OCCN4CCOCC4)c(OCCN4CCOCC4)cc23)cc1Cl,10.4,0.05,7.91,16.6,20.4,,,,,,,,,
